# Measured values published in patent US10167262B2, “Herbicidal substituted 3-arylpyrazoles” (FMC CORPORATION, priority 2014, dated 2019).
# Values joined by “and” are separate entries in the source; they are usually repeats but may differ in a detail not shown here. Identical values can stand only once.
# How the values were obtained:
# Experiment in all cases: Test H postemergence mixture test of compound 39 with commercial herbicides, observed and Colby expected effect 0-100
# Assay type in all cases: in vivo
# Details in all cases: Cmpd 39 alone, 14 days after treatment
# [1] = system: waterhemp (common waterhemp, AMATA, Amaranthus rudis)
# From the text: (§1) This test evaluated the effect of mixtures of compound 39 with three commercial herbicides on five plant species. Seeds of plant species selected from corn (ZEAMD, Zea mays), soybean (GLXMA, Glycine max), palmer pigweed (AMAPA, Amaranthus palmeri), waterhemp (common waterhemp, AMATA, Amaranthus rudis), and Kochia (KCHSC, Kochia scoparia) were planted in pots containing Redi-Earth® planting medium (Scotts Company, 14111 Scottslawn Road, Marysville, Ohio 43041) comprising spaghnum peat moss, vermiculite, wetting agent and starter nutrients and treated with postemergence applications of test chemicals formulated in a non-phytotoxic solvent mixture which included a surfactant and applied using a volume of 299 L/ha. Each treatment was replicated four times. Treated plants and controls were maintained in a greenhouse using supplemental lighting to maintain a photoperiod of about 16 h; daytime and nighttime temperatures were about 24-30° C. and 19-21° C., respectively. Nutrients were applied using a balanced fertilizer applied through the watering system. At 14 days after treatment, all species were compared to controls and visually evaluated. Plant response ratings were calculated as the mean of the four replicates, are summarized in Tables H1 through H6, and are based on a scale of 0 to 100 where 0 is no effect and 100 is complete control. A dash (-) response means no test result.
# (§2) Colby's Equation was used to determine the herbicidal effects expected from the mixtures. Colby's Equation (Colby, S. R. “Calculating Synergistic and Antagonistic Responses of Herbicide Combinations,” Weeds, 15(1), pp 20-22 (1967)) calculates the expected additive effect of herbicidal mixtures and for two active ingredients is of the form: Pa+b=Pa+Pb−(PaPb/100) • where • Pa+b is the percentage effect of the mixture expected from additive contribution of the individual components: • Pa is the observed percentage effect of the first active ingredient at the same use rate as in the mixture, and • Pb is the observed percentage effect of the second active ingredient at the same use rate as in the mixture. In the following Tables, rates are shown in grams of active ingredient per hectare (g a.i./ha); “Obsd.” is the observed effect. “Exp.” is the expected effect calculated from Colby's Equation.
# [2] = system: corn (ZEAMD, Zea mays)
# From the text: as §1, §2
# [3] = system: palmer pigweed (AMAPA, Amaranthus palmeri)
# From the text: as §1, §2
# [4] = system: Kochia (KCHSC, Kochia scoparia)
# From the text: as §1, §2
# [5] = system: soybean (GLXMA, Glycine max)
# From the text: as §1, §2
smiles,measurement,setting,value
"C#CCn1cc(C(=O)c2ccccc2)c(-c2cc(Cl)cc(Cl)c2)n1 [Compound 39, [3-(3,5-dichlorophenyl)-1-(2-propyn-1-yl)-1H-pyrazol-4-yl]phenylmethanone]",AMATA Obsd. (observed effect),[1]; 16 g a.i./ha,75
same,AMATA Obsd. (observed effect),[1]; 31 g a.i./ha,88 and 83
same,AMATA Obsd. (observed effect),[1]; 62 g a.i./ha,79
same,ZEAMD Obsd. (observed effect),[2]; 16 g a.i./ha,0
same,ZEAMD Obsd. (observed effect),[2]; 31 g a.i./ha,0
same,ZEAMD Obsd. (observed effect),[2]; 62 g a.i./ha,0
same,AMAPA Obsd. (observed effect),[3]; 16 g a.i./ha,55
same,AMAPA Obsd. (observed effect),[3]; 31 g a.i./ha,86 and 78
same,AMAPA Obsd. (observed effect),[3]; 62 g a.i./ha,79 and 76
same,KCHSC Obsd. (observed effect),[4]; 16 g a.i./ha,47
same,KCHSC Obsd. (observed effect),[4]; 31 g a.i./ha,60 and 47
same,KCHSC Obsd. (observed effect),[4]; 62 g a.i./ha,64
same,GLXMA Obsd. (observed effect),[5]; 16 g a.i./ha,0
same,GLXMA Obsd. (observed effect),[5]; 31 g a.i./ha,0
same,GLXMA Obsd. (observed effect),[5]; 62 g a.i./ha,0
